Data on 1 molecule can be found in article PMC11574108, “4-Furanylvinylquinoline derivative as a new scaffold for the design of oxidative stress initiator and glucose transporter inhibitor drugs” (Scientific Reports, 2024).

Structures are written as SMILES.

For experiment [1], the system named is HO-1. Kind of experiment: Western blot, HO-1 protein level. Particulars: 24 h. The format is cell-based, human. As to the method: The cells (500,000) were seeded in 35 mm Petri dishes (Nunc) and incubated in a solution of the tested compound (0.5 µM and 1 µM) for 24 h and 48 h. The cells were then dissociated using trypsin, collected in Eppendorf tubes, and centrifuged at 2,000 rpm. Next, cell pellets were resuspended in complete RIPA buffer containing a Halt Protease Inhibitor Cocktail and Halt Phosphatase Inhibitor Cocktail along with 0.5 M EDTA (all reagents from Thermo Fisher Scientific) and lysed on ice for 20 min. Afterward, the lysates were sonicated and centrifuged at 10,000 rpm for 10 min at 4 °C. The obtained supernatants were collected for further analysis. The protein concentration was determined using a Micro BCA™ Protein Assay Kit (Thermo Fisher Scientific) according to the manufacturer’s procedure. Equal amounts of proteins (16 µg) were electrophoresed on SDS-Page gels and transferred onto nitrocellulose membranes. Novex Sharp Pre-Stained Protein Standard (Thermo Fisher Scientific) was used as a colored molecular weight marker. The membranes were blocked in 5% non-fat milk prepared in TPBS (PBS supplemented by 0.1% Tween-20) for 1 h. After blocking, the membranes were cut, and then incubated with specific primary monoclonal antibodies (all purchased from Cell Signaling) overnight at 4 °C. The antibodies for the target proteins (CDK1 Mouse mAb #9116, p53 Mouse mAb #2524, FAS Mouse mAb #8023, GLUT-1 Rabbit mAb #12939, HO-1 Rabbit mAb #5853, p21^Waf1/Cip1 Rabbit mAb #2947, PARP #9542) were diluted 1:1000, while the antibodies for the reference proteins (GAPDH Rabbit mAb #2118, β-actin Mouse mAb #3700, and vinculin Rabbit mAb #13901) were diluted 1:2000. The following day, the membranes were washed in TPBS and incubated with horseradish peroxidase (HRP)-conjugated secondary antibodies (Anti-rabbit IgG, HRP-linked Antibody #7074 or Anti-mouse IgG, HRP-linked Antibody #7076) for 1 h at room temperature. The membranes were then washed in TPBS and incubated with a SuperSignal™ West Pico Chemiluminescent Substrate (Thermo Fisher Scientific). […]
A general note: In western blotting, separated proteins are transferred to a membrane and probed.

Experiment [2] relates to AsPC-1 spheroids. Kind of experiment: 3D spheroid cell viability assay. The format is cell-based. Particulars: Homo sapiens, ASPC1; 3D spheroids, CellTiter-Glo 3D, 72-h treatment; read-out: IC50 AsPC-1 (3D model). As to the method: (§1) The HCT 116 cell lines, AsPC-1, PANC-1 (5,000), and U-251 cells (8,000) in 100 µL of medium were seeded in 96-well ULA Corning spheroid microplates (Sigma-Aldrich) and incubated for 72 h at 37 °C to form spheroids. The medium from each well was then gently removed and freshly prepared solutions of 13 were added. The treated spheroids were incubated for the next 72-h. Afterward, cell viability assays were performed using CellTiter-Glo 3D Reagent (Promega) according to the manufacturer’s protocol. Briefly, CellTiter-Glo 3D Reagent was added in equal volume to the medium in each well. The plate was vigorously mixed for 5 min and then incubated for 25 min at room temperature. The luminescence was measured using a multiplate reader (Synergy 4, BioTek). The experiment for each sample was performed at least three times. The results from the assay are presented as IC50 values, which were calculated using GraphPad Prism v.8.0 (USA).
(§2) To confirm the cytotoxicity ranking, the viability of the cells was also estimated on a 3D spheroid model, which better represented a solid tumour. […] The cell lines that represented pancreatic cancer were less responsive to derivative 13, which was similar to the 2D model. […] However, the activity of derivative 13 was confirmed on the 3D model that reflected a real tumour, which is undoubtedly a positive result and a reason for further, more in-depth studies to clarify the mechanism of action of the 4-furanylvinylquinoline derivative 13.
In general terms: In ATP-based viability assays light output follows the ATP content of the culture.

In experiment [3] the test system is PANC-1 spheroids. As to the kind of experiment: 3D spheroid cell viability assay. Format: cell-based. The conditions noted are these: Homo sapiens, 3D spheroids, CellTiter-Glo 3D, 72-h treatment, read-out: IC50 PANC-1 (3D model). As to the method:
as §1, §2

Experiment [4] deals with U-251 spheroids. Kind of experiment: 3D spheroid cell viability assay. Format: cell-based. Particulars: Homo sapiens, 3D spheroids, CellTiter-Glo 3D, 72-h treatment, read-out: IC50 U-251 (3D model). As to the method: as §1, §2
Experiment [5] has as its system HCT 116 p53-/- spheroids. As to the kind of experiment: 3D spheroid cell viability assay. Format: cell-based. Particulars: Homo sapiens, HCT-116, 72 h, 3D spheroids, CellTiter-Glo 3D, 72-h treatment; read-out: IC50 HCT 116 p53-/- (3D model). As to the method:
as §1, §2

`O=[N+]([O-])c1ccc(/C=C/c2ccnc3ccccc23)o1` [Compound 13]: the “HO-1 protein level vs control” value in experiment [1] (HCT 116 p53+/+, 1 µM) is on record as “more than twelve-fold”; in experiment [1] (HCT 116 p53-/-, 1 µM) it was “six-fold”; in experiment [1] (U-251, 1 µM), “four-fold”. Further, the IC50 in experiment [2] was 4180 ± 1000 nM; in experiment [3] it was 2160 ± 370 nM; in experiment [4] it was 340 ± 70 nM; in experiment [5], about 1000 nM.
